Results from patent US4328334A, “11-Aza-10-deoxo-10-dihydroerythromycin A and derivatives thereof as well as a process for their preparation” (PLIVA Pharmaceutical and Chemical Works, priority 1979, dated 1982).
Values after ≈ are worked out from the molar mass of the structure shown. Where two headings read alike, the source gives them in different places.

How the values were obtained:
[1] = system: Bacillus subtilis ATCC 6633; test: in vitro minimum inhibitory concentration, Bacillus subtilis ATCC 6633; format: cell-based
[2] = system: Staphylococcus aureus ATCC 6538-P; test: in vitro minimum inhibitory concentration, Staphylococcus aureus ATCC 6538-P; format: cell-based
[3] = system: Micrococcus flavus ATCC 10240; test: in vitro minimum inhibitory concentration, Micrococcus flavus ATCC 10240; format: cell-based
[4] = system: Staphylococcus epidermidis ATCC 12228; test: in vitro minimum inhibitory concentration, Staphylococcus epidermidis ATCC 12228; format: cell-based
[5] = system: Sarcina lutea ATCC 9341; test: in vitro minimum inhibitory concentration, Sarcina lutea ATCC 9341; format: cell-based; conditions: Micrococcus luteus, ATCC9341, read-out: minimum inhibitory concentrations (MIC)
[6] = system: Streptococcus faecalis ATCC 8043; test: in vitro minimum inhibitory concentration, Streptococcus faecalis ATCC 8043; format: cell-based; conditions: Enterococcus faecalis
[7] = system: Bacillus cereus var. mycoides ATCC 11778; test: microbe, parasite or virus in culture; format: cell-based; conditions: ATCC11778, read-out: minimum inhibitory concentrations (MIC)
[8] = system: Salmonella panama; test: in vitro minimum inhibitory concentration, Salmonella panama; format: cell-based; conditions: Salmonella enterica, read-out: minimum inhibitory concentrations (MIC)
[9] = system: Shigella flexneri II-1819/C; test: in vitro minimum inhibitory concentration, Shigella flexneri II-1819/C; format: cell-based; conditions: II1819/C, read-out: minimum inhibitory concentrations (MIC)
Method: In order to examine the antibacterial action, some new compounds were tested in vitro on a series of gram-positive and gram-negative micro-organisms. The results are shown in Table 1 as minimum inhibitory concentrations (MIC) in mcg/ml in comparision with erythromycin A erythromycin A oxime.

[10] = system: Escherichia coli ATCC 10536; test: in vitro minimum inhibitory concentration, Escherichia coli ATCC 10536; format: cell-based; conditions: ATCC10536, read-out: minimum inhibitory concentrations (MIC)
[11] = system: Corynebacterium xerosis NCTC 9755; test: in vitro minimum inhibitory concentration, Corynebacterium xerosis NCTC 9755; format: cell-based
[12] = system: Klebsiella pneumoniae ATCC 10031; test: in vitro minimum inhibitory concentration, Klebsiella pneumoniae ATCC 10031; format: cell-based
[13] = system: Staphylococcus aureus ATCC 6538-P; test: stability in acid medium: MIC after exposure to 1 N HCl; format: cell-based; conditions: ATCC6538, pH 1.2, Staphylococcus aureus ATCC 6538-P
[14] = system: Brucella bronchiseptica ATCC 4617; test: microbe, parasite or virus in culture; format: cell-based; conditions: Bordetella bronchiseptica, ATCC4617, read-out: minimum inhibitory concentrations (MIC)
[15] = system: Pseudomonas aeruginosa NCTC 10490; test: in vitro minimum inhibitory concentration, Pseudomonas aeruginosa NCTC 10490; format: cell-based
[16] = acute i.v. toxicity in albino mice (Litchfield-Wilcoxon); conditions: mouse, in vivo, iv; acute i.v., albino mice
[17] = pKb in dimethyl formamide-water; format: physicochemical; conditions: dmf (66% v/v)-water; dimethyl formamide (66% v/v)-water
[18] = ATCC6633, in vitro, Bacillus subtilis ATCC 6633, read-out: minimum inhibitory concentrations (MIC)
[19] = ATCC6538, in vitro, Staphylococcus aureus ATCC 6538-P, read-out: minimum inhibitory concentrations (MIC)
[20] = ATCC10240, in vitro, Micrococcus flavus ATCC 10240, read-out: minimum inhibitory concentrations (MIC)
[21] = ATCC12228, in vitro, Staphylococcus epidermidis ATCC 12228, read-out: minimum inhibitory concentrations (MIC)
[22] = ATCC8043, in vitro, Streptococcus faecalis ATCC 8043, read-out: minimum inhibitory concentrations (MIC)
[23] = exposure time 1/2 hour, 1 N HCl

## CC[C@H]1OC(=O)[C@H](C)[C@@H](O[C@H]2C[C@@](C)(OC)[C@@H](O)[C@H](C)O2)[C@H](C)[C@@H](O[C@@H]2O[C@H](C)C[C@H](N(C)C)[C@H]2O)[C@](C)(O)C[C@@H](C)CN(S(=O)(=O)c2ccc(C)cc2)[C@H](C)[C@@H](O)[C@]1(C)O [Compound VIII, N-(4-methyl-benzenesulfonyl)-11-aza-10-deoxo-10-dihydroerythromycin A]
[1]; [18]
  MIC: 100 µg/mL (≈ 112 µM)
[2]; [19]
  MIC: 100 µg/mL (≈ 112 µM)
[3]; [20]
  MIC: 20 µg/mL (≈ 22.5 µM)
[4]; [21]
  MIC: 100 µg/mL (≈ 112 µM)
[5]
  MIC: 50 µg/mL (≈ 56.2 µM)
[6]; [22]
  MIC: 20 µg/mL (≈ 22.5 µM)
[7]
  MIC: 50 µg/mL (≈ 56.2 µM)

## CC[C@H]1OC(=O)[C@H](C)[C@@H](O[C@H]2C[C@@](C)(OC)[C@@H](O)[C@H](C)O2)[C@H](C)[C@@H](O[C@@H]2O[C@H](C)C[C@H](N(C)C)[C@H]2O)[C@](C)(O)C[C@@H](C)C(=O)[C@H](C)[C@@H](O)[C@]1(C)O [E, erythromycin A]
[8]
  MIC: 50 µg/mL (≈ 68.1 µM)
[1]; Bacillus subtilis, ATCC6633, read-out: minimum inhibitory concentrations (MIC)
  MIC: 0.05 µg/mL (≈ 0.0681 µM)
[2]; Staphylococcus aureus, ATCC6538, read-out: minimum inhibitory concentrations (MIC)
  MIC: 0.5 µg/mL (≈ 0.681 µM)
[9]
  MIC: 25 µg/mL (≈ 34.1 µM)
[3]; Micrococcus flavus, ATCC10240, read-out: minimum inhibitory concentrations (MIC)
  MIC: 0.05 µg/mL (≈ 0.0681 µM)
[10]
  MIC: 25 µg/mL (≈ 34.1 µM)
[11]; Corynebacterium xerosis, NCTC9755, read-out: minimum inhibitory concentrations (MIC)
  MIC: 0.1 µg/mL (≈ 0.136 µM)
[4]; Staphylococcus epidermidis, ATCC12228, read-out: minimum inhibitory concentrations (MIC)
  MIC: 0.1 µg/mL (≈ 0.136 µM)
[5]
  MIC: 0.05 µg/mL (≈ 0.0681 µM)
[12]; Klebsiella pneumoniae, ATCC10031, read-out: minimum inhibitory concentrations (MIC)
  MIC: 5 µg/mL (≈ 6.81 µM)
[13]; exposure time 0 hours
  MIC: 0.5 µg/mL (≈ 0.681 µM)
[13]; [23]
  MIC: 7.5 µg/mL (≈ 10.2 µM)
[13]; exposure time 1 hour, 1 N HCl
  MIC: 10 µg/mL (≈ 13.6 µM)
[13]; exposure time 2 hours, 1 N HCl
  MIC: 10 µg/mL (≈ 13.6 µM)
[13]; exposure time 3 hours, 1 N HCl
  MIC: 10 µg/mL (≈ 13.6 µM)
[13]; exposure time 6 hours, 1 N HCl
  MIC: 20 µg/mL (≈ 27.3 µM)
[14]
  MIC: 1 µg/mL (≈ 1.36 µM)
[6]; ATCC8043, read-out: minimum inhibitory concentrations (MIC)
  MIC: 0.05 µg/mL (≈ 0.0681 µM)
[15]; Pseudomonas aeruginosa, NCTC10490, read-out: minimum inhibitory concentrations (MIC)
  MIC: 50 µg/mL (≈ 68.1 µM)
[7]
  MIC: 0.1 µg/mL (≈ 0.136 µM)

## CC[C@H]1OC(=O)[C@H](C)[C@@H](O[C@H]2C[C@@](C)(OC)[C@@H](O)[C@H](C)O2)[C@H](C)[C@@H](O[C@@H]2O[C@H](C)C[C@H](N(C)C)[C@H]2O)[C@](C)(O)C[C@@H](C)C(=NO)[C@H](C)[C@@H](O)[C@]1(C)O [EO, erythromycin A oxime, reference compound]
[8]; in vitro, Salmonella panama
  MIC: 50 µg/mL (≈ 66.8 µM)
[1]; [18]
  MIC: 0.1 µg/mL (≈ 0.134 µM)
[16]
  LD50: 74 mg/kg
[2]; [19]
  MIC: 0.5 µg/mL (≈ 0.668 µM)
[9]
  MIC: 50 µg/mL (≈ 66.8 µM)
[3]; [20]
  MIC: 0.1 µg/mL (≈ 0.134 µM)
[10]
  MIC: 25 µg/mL (≈ 33.4 µM)
[11]; NCTC9755, in vitro, Corynebacterium xerosis NCTC 9755, read-out: minimum inhibitory concentrations (MIC)
  MIC: 0.1 µg/mL (≈ 0.134 µM)
[4]; [21]
  MIC: 0.1 µg/mL (≈ 0.134 µM)
[5]
  MIC: 0.05 µg/mL (≈ 0.0668 µM)
[12]; ATCC10031, in vitro, Klebsiella pneumoniae ATCC 10031, read-out: minimum inhibitory concentrations (MIC)
  MIC: 5 µg/mL (≈ 6.68 µM)
[13]; exposure time 0 hours
  MIC: 0.1 µg/mL (≈ 0.134 µM)
[13]; [23]
  MIC: 0.1 µg/mL (≈ 0.134 µM)
[13]; exposure time 1 hour, 1 N HCl
  MIC: 0.1 µg/mL (≈ 0.134 µM)
[13]; exposure time 2 hours, 1 N HCl
  MIC: 0.5 µg/mL (≈ 0.668 µM)
[13]; exposure time 3 hours, 1 N HCl
  MIC: 0.5 µg/mL (≈ 0.668 µM)
[13]; exposure time 6 hours, 1 N HCl
  MIC: 0.5 µg/mL (≈ 0.668 µM)
[14]
  MIC: 1 µg/mL (≈ 1.34 µM)
[6]; [22]
  MIC: 0.05 µg/mL (≈ 0.0668 µM)
[15]; NCTC10490, in vitro, Pseudomonas aeruginosa NCTC 10490, read-out: minimum inhibitory concentrations (MIC)
  MIC: 50 µg/mL (≈ 66.8 µM)
[7]
  MIC: 0.1 µg/mL (≈ 0.134 µM)

## CC[C@H]1OC(=O)[C@H](C)[C@@H](O[C@H]2C[C@@](C)(OC)[C@@H](O)[C@H](C)O2)[C@H](C)[C@@H](O[C@@H]2O[C@H](C)C[C@H](N(C)C)[C@H]2OC(C)=O)[C@](C)(O)C[C@@H](C)CN(C(C)=O)[C@H](C)[C@@H](O)[C@]1(C)O [Example 5, 2',N-diacetyl-11-aza-10-deoxo-10-dihydroerythromycin A]
[17]
  pKa: 6.7

## CCC(=O)O[C@H]1[C@H](O[C@@H]2[C@@H](C)[C@H](O[C@H]3C[C@@](C)(OC)[C@@H](O)[C@H](C)O3)[C@@H](C)C(=O)O[C@H](CC)[C@@](C)(O)[C@H](O)[C@@H](C)N(C(=O)CC)C[C@H](C)C[C@@]2(C)O)O[C@H](C)C[C@@H]1N(C)C [Example 6, 2',N-dipropionyl-11-aza-10-deoxo-10-dihydroerythromycin A]
[17]
  pKa: 6.7
